Experimental data from ChEMBL document CHEMBL5303765, “Data for DCP probe BAY-7081” (2023).

Tests used:
[1] = target: Dual specificity protein kinase CLK3 (Homo sapiens) (UniProt P49761); test: CLK3 SGC Tm panel (DSF); settings: for ΔTm: Compound concentration 10.0 uM
[2] = target: Dual specificity tyrosine-phosphorylation-regulated kinase 1A (Homo sapiens) (UniProt Q13627); test: DYRK1A SGC Tm panel (DSF); settings: for ΔTm: Compound concentration 10.0 uM
[3] = target: Ephrin type-A receptor 5 (Homo sapiens) (UniProt P54756); test: EPHA5 SGC Tm panel (DSF); settings: for ΔTm: Compound concentration 10.0 uM
[4] = target: Vascular endothelial growth factor receptor 1 (Homo sapiens) (UniProt P17948); test: FLT1 SGC Tm panel (DSF); settings: for ΔTm: Compound concentration 10.0 uM
[5] = target: Homeodomain-interacting protein kinase 2 (Homo sapiens) (UniProt Q9H2X6); test: HIPK2 SGC Tm panel (DSF); settings: for ΔTm: Compound concentration 10.0 uM
[6] = target: Mitogen-activated protein kinase 10 (Homo sapiens) (UniProt P53779); test: MAPK10 SGC Tm panel (DSF); settings: for ΔTm: Compound concentration 10.0 uM
[7] = target: T1, Mitogen-activated protein kinase 15 (Homo sapiens) (UniProt Q8TD08); test: MAPK15 SGC Tm panel (DSF); settings: for ΔTm: Compound concentration 10.0 uM
T1 sequence (whole entry): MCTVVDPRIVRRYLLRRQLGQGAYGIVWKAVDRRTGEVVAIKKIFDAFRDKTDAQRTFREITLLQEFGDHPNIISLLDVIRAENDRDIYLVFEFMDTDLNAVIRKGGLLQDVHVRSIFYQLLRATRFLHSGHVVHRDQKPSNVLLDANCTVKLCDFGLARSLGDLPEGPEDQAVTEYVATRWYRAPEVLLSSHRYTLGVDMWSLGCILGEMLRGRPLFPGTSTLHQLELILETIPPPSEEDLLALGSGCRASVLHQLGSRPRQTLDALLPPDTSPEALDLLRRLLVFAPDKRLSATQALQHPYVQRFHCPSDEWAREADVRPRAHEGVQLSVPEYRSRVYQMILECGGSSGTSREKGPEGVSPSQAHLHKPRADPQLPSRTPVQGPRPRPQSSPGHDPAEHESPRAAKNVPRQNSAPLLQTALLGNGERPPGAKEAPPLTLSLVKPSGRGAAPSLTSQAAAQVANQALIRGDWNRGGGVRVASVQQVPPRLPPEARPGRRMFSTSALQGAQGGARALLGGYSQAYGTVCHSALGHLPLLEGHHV

[8] = target: Mitogen-activated protein kinase 8 (Homo sapiens) (UniProt P45983); test: MAPK8 SGC Tm panel (DSF); settings: for ΔTm: Compound concentration 10.0 uM
[9] = target: T2, MAP/microtubule affinity-regulating kinase 4 (Homo sapiens) (UniProt Q96L34); test: MARK4 SGC Tm panel (DSF); settings: for ΔTm: Compound concentration 10.0 uM
T2 sequence (whole entry): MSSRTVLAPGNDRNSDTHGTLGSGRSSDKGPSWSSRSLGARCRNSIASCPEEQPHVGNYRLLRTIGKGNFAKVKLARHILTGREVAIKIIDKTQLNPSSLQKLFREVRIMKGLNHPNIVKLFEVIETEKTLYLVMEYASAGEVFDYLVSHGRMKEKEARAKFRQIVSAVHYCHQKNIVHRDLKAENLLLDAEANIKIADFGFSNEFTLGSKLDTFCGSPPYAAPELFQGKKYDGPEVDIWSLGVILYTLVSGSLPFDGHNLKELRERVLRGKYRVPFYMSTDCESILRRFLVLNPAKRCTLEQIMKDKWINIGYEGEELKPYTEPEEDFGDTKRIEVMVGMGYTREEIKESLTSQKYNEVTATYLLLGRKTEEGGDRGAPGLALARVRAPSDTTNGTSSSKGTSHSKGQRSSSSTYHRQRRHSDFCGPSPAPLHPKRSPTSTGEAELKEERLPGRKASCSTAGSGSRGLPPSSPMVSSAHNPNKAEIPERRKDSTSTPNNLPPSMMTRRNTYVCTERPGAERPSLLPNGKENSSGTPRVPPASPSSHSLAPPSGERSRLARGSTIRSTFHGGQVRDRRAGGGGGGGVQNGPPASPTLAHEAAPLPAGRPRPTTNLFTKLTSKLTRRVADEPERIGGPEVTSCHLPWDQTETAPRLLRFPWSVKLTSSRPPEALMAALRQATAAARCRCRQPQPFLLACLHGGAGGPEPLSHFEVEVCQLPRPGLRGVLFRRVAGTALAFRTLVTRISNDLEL

[10] = target: Maternal embryonic leucine zipper kinase (Homo sapiens) (UniProt Q14680); test: MELK SGC Tm panel (DSF); settings: for ΔTm: Compound concentration 10.0 uM
[11] = target: SRSF protein kinase 3 (Homo sapiens) (UniProt Q9UPE1); test: MSSK1 SGC Tm panel (DSF); settings: for ΔTm: Compound concentration 10.0 uM
[12] = target: Ribosomal protein S6 kinase alpha-5 (Homo sapiens) (UniProt O75582); test: RPS6KA5 SGC Tm panel (DSF); settings: for ΔTm: Compound concentration 10.0 uM
[13] = target: STE20/SPS1-related proline-alanine-rich protein kinase (Homo sapiens) (UniProt Q9UEW8); test: STK39 SGC Tm panel (DSF); settings: for ΔTm: Compound concentration 10.0 uM
[14] = target: 5-hydroxytryptamine receptor 7 (Homo sapiens) (UniProt P34969); settings: Compound concentration 10.0 uM
[15] = target: Sodium-dependent serotonin transporter (Homo sapiens) (UniProt P31645); settings: Compound concentration 10.0 uM
[16] = target: Histamine H1 receptor (Homo sapiens) (UniProt P35367); settings: Compound concentration 10.0 uM
[17] = target: Histamine H2 receptor (Homo sapiens) (UniProt P25021); settings: Compound concentration 10.0 uM
[18] = target: T3, Muscarinic acetylcholine receptor M4 (Homo sapiens) (UniProt P08173); settings: Compound concentration 10.0 uM
T3 sequence (whole entry): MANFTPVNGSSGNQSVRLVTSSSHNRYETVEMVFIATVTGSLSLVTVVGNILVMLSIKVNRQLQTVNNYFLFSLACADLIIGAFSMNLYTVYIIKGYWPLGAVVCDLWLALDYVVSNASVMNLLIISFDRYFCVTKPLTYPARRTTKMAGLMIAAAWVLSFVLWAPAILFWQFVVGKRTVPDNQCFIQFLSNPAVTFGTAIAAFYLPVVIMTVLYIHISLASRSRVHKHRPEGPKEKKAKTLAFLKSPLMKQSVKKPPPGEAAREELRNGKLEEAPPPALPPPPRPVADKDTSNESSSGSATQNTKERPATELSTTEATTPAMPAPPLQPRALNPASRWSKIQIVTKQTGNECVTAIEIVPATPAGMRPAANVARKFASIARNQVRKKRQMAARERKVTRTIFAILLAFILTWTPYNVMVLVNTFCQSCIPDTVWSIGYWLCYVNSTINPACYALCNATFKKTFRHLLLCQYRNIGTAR

[19] = target: Sigma intracellular receptor 2 (Homo sapiens) (UniProt Q5BJF2); settings: Compound concentration 10.0 uM
Sigma intracellular receptor 2 (Homo sapiens), sequence (Q5BJF2 whole entry): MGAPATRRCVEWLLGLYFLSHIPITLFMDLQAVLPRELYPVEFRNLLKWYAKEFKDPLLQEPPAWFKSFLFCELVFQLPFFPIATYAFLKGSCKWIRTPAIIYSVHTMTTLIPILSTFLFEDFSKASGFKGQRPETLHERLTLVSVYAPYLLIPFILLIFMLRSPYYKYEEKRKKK

5-hydroxytryptamine receptor 7 (Homo sapiens), sequence (P34969 whole entry): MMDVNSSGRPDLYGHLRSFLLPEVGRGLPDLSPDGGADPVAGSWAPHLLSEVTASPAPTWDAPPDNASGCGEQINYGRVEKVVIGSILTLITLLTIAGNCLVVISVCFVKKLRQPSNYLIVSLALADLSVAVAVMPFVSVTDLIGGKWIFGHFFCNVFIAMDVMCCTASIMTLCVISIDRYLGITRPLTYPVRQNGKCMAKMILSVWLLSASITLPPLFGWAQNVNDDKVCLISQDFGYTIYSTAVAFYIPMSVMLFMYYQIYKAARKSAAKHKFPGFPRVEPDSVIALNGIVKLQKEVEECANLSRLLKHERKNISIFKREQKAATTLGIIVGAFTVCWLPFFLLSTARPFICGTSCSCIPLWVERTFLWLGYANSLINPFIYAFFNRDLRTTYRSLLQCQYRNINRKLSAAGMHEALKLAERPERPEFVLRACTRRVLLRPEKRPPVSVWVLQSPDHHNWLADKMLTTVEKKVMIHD
Sodium-dependent serotonin transporter (Homo sapiens), sequence (P31645 whole entry, looked up): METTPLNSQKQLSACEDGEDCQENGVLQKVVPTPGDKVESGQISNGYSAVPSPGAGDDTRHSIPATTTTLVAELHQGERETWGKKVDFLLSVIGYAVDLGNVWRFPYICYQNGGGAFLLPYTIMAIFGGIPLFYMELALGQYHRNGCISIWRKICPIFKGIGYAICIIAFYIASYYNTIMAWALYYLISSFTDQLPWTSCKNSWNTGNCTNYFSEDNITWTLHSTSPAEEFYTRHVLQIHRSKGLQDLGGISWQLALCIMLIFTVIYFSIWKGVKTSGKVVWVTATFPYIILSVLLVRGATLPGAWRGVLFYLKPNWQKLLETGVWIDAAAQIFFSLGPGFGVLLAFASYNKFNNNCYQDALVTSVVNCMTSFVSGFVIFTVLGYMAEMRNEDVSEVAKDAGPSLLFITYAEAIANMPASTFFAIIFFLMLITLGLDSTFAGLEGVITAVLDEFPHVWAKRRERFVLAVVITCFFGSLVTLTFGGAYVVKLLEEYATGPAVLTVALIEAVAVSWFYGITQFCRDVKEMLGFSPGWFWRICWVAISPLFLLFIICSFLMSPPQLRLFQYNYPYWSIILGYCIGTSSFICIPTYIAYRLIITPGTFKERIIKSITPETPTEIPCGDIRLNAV
Histamine H1 receptor (Homo sapiens), sequence (P35367 whole entry): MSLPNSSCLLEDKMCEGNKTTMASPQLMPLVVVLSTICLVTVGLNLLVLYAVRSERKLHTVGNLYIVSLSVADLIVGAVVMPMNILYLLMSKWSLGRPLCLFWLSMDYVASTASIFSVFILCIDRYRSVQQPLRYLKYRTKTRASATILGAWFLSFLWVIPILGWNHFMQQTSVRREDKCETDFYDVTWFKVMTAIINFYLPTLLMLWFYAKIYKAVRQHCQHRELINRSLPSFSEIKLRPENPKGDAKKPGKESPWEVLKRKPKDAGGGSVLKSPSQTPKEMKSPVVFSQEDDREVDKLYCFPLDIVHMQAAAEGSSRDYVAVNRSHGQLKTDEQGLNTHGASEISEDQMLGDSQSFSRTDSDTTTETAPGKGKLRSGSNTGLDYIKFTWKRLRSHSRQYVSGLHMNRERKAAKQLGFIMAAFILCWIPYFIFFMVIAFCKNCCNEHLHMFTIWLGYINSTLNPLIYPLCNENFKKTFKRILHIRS
SRSF protein kinase 3 (Homo sapiens), sequence (Q9UPE1 whole entry): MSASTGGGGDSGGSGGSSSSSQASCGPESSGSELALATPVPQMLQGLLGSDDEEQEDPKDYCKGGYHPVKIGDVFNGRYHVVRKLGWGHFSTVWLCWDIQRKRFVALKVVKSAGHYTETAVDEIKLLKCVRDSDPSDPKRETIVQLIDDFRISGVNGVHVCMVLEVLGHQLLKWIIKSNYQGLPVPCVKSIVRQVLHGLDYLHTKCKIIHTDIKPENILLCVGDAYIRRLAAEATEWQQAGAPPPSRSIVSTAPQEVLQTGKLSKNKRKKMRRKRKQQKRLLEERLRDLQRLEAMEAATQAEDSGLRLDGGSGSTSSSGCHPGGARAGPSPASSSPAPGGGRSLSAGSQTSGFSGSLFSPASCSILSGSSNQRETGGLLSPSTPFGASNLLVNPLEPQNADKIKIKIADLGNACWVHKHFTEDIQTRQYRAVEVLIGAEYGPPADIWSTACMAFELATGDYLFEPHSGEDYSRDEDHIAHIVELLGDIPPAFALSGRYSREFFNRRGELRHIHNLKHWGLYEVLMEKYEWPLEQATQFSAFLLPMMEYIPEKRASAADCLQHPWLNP
Ephrin type-A receptor 5 (Homo sapiens), sequence (P54756 whole entry): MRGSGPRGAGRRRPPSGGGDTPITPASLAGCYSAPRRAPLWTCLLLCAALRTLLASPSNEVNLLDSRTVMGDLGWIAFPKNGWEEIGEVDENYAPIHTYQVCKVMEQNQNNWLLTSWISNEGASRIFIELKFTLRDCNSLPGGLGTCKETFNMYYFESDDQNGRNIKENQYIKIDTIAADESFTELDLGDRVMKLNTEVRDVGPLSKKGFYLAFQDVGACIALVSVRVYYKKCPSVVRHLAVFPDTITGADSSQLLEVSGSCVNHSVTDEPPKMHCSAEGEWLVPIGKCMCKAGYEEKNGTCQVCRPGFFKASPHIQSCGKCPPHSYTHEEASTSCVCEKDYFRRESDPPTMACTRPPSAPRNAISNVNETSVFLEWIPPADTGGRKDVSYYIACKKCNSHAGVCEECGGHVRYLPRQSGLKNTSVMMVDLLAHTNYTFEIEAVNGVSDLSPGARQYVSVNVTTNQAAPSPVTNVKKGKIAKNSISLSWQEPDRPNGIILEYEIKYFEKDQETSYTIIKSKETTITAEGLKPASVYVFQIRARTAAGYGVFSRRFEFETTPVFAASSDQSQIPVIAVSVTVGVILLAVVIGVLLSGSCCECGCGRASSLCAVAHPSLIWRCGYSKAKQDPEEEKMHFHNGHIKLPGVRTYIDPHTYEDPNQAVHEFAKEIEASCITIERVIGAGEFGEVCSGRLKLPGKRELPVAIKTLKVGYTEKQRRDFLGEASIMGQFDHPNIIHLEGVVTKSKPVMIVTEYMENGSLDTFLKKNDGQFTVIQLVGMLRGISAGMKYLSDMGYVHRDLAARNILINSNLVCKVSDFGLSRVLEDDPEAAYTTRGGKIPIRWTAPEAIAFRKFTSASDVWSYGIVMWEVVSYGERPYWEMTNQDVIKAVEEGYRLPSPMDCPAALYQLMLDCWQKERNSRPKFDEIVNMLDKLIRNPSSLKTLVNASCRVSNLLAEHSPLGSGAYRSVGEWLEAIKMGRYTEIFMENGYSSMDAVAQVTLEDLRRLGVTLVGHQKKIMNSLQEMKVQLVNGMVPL
Mitogen-activated protein kinase 10 (Homo sapiens), sequence (P53779 whole entry): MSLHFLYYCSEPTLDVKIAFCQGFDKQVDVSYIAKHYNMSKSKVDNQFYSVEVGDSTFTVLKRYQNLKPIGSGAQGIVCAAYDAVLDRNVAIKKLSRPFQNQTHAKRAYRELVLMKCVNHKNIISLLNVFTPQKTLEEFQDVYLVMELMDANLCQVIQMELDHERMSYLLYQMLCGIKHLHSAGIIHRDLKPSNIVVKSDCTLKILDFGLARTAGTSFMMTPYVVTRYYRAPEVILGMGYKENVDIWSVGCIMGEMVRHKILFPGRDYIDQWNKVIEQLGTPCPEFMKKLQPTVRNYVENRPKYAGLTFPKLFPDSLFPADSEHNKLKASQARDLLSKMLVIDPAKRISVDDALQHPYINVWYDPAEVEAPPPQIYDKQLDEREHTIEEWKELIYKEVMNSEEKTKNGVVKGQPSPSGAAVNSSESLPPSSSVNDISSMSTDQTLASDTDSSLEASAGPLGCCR
Homeodomain-interacting protein kinase 2 (Homo sapiens), sequence (Q9H2X6 whole entry, looked up): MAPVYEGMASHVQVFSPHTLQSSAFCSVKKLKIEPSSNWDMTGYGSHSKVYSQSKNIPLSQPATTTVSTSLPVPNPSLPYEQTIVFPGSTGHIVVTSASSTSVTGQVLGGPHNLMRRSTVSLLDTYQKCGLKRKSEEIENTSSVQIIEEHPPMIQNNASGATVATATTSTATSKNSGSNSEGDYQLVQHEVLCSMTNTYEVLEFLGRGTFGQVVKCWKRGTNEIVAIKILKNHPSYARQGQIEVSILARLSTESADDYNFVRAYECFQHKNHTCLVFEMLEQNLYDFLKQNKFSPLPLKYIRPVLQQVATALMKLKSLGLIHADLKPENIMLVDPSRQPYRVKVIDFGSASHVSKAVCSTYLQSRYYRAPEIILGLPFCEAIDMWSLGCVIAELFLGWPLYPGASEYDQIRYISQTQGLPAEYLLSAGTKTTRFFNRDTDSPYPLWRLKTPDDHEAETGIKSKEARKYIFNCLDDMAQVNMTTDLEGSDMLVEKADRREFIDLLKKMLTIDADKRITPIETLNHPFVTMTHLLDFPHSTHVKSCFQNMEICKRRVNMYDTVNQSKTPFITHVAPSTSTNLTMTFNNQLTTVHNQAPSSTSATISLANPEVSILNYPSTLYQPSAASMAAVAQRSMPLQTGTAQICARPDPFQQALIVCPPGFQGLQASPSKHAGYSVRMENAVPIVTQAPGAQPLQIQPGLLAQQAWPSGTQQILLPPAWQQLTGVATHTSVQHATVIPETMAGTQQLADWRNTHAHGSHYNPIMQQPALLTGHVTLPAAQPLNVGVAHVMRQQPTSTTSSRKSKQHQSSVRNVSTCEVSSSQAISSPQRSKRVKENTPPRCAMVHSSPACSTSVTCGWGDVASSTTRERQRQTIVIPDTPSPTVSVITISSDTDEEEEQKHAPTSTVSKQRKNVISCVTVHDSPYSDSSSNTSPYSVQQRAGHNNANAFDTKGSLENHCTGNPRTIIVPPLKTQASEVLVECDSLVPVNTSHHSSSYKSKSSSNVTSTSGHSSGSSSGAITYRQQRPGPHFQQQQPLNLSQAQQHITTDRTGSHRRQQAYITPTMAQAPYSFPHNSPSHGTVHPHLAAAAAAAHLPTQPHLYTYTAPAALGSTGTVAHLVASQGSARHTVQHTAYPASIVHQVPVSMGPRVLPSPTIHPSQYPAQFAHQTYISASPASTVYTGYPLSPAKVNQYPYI

Compound: CCC[C@@H]1CNCc2c1[nH]c(=O)c(C#N)c2N1CCC2(CC1)CC2
- delta Tm Staurosporine positive control [1]: 5.3
- ΔTm [1]: -0.379
- delta Tm Staurosporine positive control [2]: 9.05
- ΔTm [2]: 0.743
- delta Tm Staurosporine positive control [3]: 8.04
- ΔTm [3]: -0.589
- delta Tm Staurosporine positive control [4]: 13.1
- ΔTm [4]: -0.163
- delta Tm Staurosporine positive control [5]: 4.23
- ΔTm [5]: -0.297
- delta Tm Staurosporine positive control [6]: 6.75
- ΔTm [6]: -0.405
- delta Tm Staurosporine positive control [7]: 16.4
- ΔTm [7]: 0.0332
- delta Tm Staurosporine positive control [8]: 7.45
- ΔTm [8]: -0.293
- delta Tm Staurosporine positive control [9]: 15.9
- ΔTm [9]: 0.243
- delta Tm Staurosporine positive control [10]: 14.2
- ΔTm [10]: 0.193
- delta Tm Staurosporine positive control [11]: 4.52
- ΔTm [11]: -0.164
- delta Tm Staurosporine positive control [12]: 13.8
- ΔTm [12]: -0.505
- delta Tm Staurosporine positive control [13]: 9.01
- ΔTm [13]: -0.455
- inhibition [14]: -2.3%
- inhibition [15]: -1.15%
- inhibition [16]: 4.72%
- inhibition [17]: 25.3%
- inhibition [18]: -5.05%
- inhibition [19]: -4.19%

Compound: CCC[C@H]1CNCc2c1[nH]c(=O)c(C#N)c2N1CCC2(CC1)CC2
- delta Tm Staurosporine positive control [1]: 5.3
- ΔTm [1]: -0.402
- delta Tm Staurosporine positive control [2]: 9.05
- ΔTm [2]: -0.256
- delta Tm Staurosporine positive control [3]: 8.04
- ΔTm [3]: -0.544
- delta Tm Staurosporine positive control [4]: 13.1
- ΔTm [4]: -0.145
- delta Tm Staurosporine positive control [5]: 4.23
- ΔTm [5]: -0.31
- delta Tm Staurosporine positive control [6]: 6.75
- ΔTm [6]: -0.509
- delta Tm Staurosporine positive control [7]: 16.4
- ΔTm [7]: -0.258
- delta Tm Staurosporine positive control [8]: 7.45
- ΔTm [8]: -0.298
- delta Tm Staurosporine positive control [9]: 15.9
- ΔTm [9]: -0.175
- delta Tm Staurosporine positive control [10]: 14.2
- ΔTm [10]: -0.201
- delta Tm Staurosporine positive control [11]: 4.52
- ΔTm [11]: -0.144
- delta Tm Staurosporine positive control [12]: 13.8
- ΔTm [12]: -0.275
- delta Tm Staurosporine positive control [13]: 9.01
- ΔTm [13]: -0.273
- inhibition [14]: 16.3%
- inhibition [15]: 6.23%
- inhibition [16]: -2.94%
- inhibition [17]: 32.7%
- inhibition [18]: -3.14%
- inhibition [19]: -5%
